According to ChEMBL document CHEMBL3120088, “Discovery of selective small molecule type III phosphatidylinositol 4-kinase alpha (PI4KIIIα) inhibitors as anti hepatitis C (HCV) agents” (J Med Chem, 2014):

Experiments:
[1] = test system: Hepatitis C virus; assay: Antiviral activity against Hepatitis C virus genotype 1b expressed in ET cells after 48 hrs by luciferase reporter gene assay; assay type: functional, organism-based, Hepacivirus hominis; settings: Hepatitis C virus, genotype 1b, ET, 48 h
[2] = Inhibition of PI3Kdelta (1 to 1044)/6xHis-tagged p85 (1 to 724) (unknown origin) using diC8-PIP2 as substrate preincubated for 30 mins followed by substrate addition measured after 45 to 60 mins; design: species or system Homo sapiens
[3] = Inhibition of PI3Kbeta (1 to 1070)/6xHis-tagged p85 (1 to 724) (unknown origin) using diC8-PIP2 as substrate preincubated for 30 mins followed by substrate addition measured after 45 to 60 mins; design: species or system Homo sapiens
[4] = Inhibition of PI3Kalpha (1 to 1068)/6xHis-tagged p85 (1 to 724) (unknown origin) using diC8-PIP2 as substrate preincubated for 30 mins followed by substrate addition measured after 45 to 60 mins; design: species or system Homo sapiens
[5] = Inhibition of 6xHis-tagged PI4K-beta (13 to 828) 316 to 330 deletion mutant (unknown origin) using D-myo-phosphatidylinositol as substrate preincubated for 30 mins followed by substrate addition measured after 180 mins by luminescence assay; design: species or system Homo sapiens
[6] = target: Phosphatidylinositol 4-kinase alpha (Homo sapiens, UniProt P42356); assay: Inhibition of GST-tagged PI4K-alpha (1 to 2044) (unknown origin) using D-myo-phosphatidylinositol as substrate preincubated for 30 mins followed by substrate addition measured after 180 mins by luminescence assay
[7] = target: Phosphatidylinositol 4,5-bisphosphate 3-kinase catalytic subunit gamma isoform (Homo sapiens, UniProt P48736)
Sequence of Phosphatidylinositol 4,5-bisphosphate 3-kinase catalytic subunit gamma isoform (P48736 whole entry, canonical isoform): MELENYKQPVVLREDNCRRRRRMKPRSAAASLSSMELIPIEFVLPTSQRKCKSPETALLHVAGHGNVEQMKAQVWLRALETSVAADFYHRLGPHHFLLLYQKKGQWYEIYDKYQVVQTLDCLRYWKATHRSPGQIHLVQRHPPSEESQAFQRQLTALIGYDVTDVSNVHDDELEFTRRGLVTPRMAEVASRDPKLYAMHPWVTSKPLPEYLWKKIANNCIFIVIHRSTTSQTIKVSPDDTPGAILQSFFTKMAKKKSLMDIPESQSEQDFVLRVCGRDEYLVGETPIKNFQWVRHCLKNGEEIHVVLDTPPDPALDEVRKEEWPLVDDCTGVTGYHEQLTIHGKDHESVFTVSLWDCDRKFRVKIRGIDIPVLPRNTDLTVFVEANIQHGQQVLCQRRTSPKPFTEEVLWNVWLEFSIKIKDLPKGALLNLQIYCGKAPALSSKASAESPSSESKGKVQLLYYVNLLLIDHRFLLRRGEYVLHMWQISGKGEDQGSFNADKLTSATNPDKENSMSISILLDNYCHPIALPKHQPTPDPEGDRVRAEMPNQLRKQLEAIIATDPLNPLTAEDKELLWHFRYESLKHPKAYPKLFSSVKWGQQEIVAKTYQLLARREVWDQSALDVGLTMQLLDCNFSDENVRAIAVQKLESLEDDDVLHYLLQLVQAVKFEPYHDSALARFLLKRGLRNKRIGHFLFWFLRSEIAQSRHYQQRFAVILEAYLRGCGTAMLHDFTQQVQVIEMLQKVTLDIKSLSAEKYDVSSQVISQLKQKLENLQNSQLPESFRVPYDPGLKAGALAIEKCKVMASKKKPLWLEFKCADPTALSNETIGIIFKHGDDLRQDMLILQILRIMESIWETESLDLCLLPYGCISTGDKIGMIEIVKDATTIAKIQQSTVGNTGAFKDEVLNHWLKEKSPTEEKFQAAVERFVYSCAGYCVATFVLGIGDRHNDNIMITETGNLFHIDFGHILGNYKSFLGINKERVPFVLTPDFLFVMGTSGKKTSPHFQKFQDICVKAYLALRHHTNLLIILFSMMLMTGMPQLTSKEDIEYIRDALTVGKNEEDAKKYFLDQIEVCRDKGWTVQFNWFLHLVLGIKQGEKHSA
Description: Inhibition of PI3Kgamma (2 to 1102) (unknown origin) using diC8-PIP2 as substrate preincubated for 30 mins followed by substrate addition measured after 45 to 60 mins

Sequence of Phosphatidylinositol 4-kinase alpha (P42356 whole entry, canonical isoform): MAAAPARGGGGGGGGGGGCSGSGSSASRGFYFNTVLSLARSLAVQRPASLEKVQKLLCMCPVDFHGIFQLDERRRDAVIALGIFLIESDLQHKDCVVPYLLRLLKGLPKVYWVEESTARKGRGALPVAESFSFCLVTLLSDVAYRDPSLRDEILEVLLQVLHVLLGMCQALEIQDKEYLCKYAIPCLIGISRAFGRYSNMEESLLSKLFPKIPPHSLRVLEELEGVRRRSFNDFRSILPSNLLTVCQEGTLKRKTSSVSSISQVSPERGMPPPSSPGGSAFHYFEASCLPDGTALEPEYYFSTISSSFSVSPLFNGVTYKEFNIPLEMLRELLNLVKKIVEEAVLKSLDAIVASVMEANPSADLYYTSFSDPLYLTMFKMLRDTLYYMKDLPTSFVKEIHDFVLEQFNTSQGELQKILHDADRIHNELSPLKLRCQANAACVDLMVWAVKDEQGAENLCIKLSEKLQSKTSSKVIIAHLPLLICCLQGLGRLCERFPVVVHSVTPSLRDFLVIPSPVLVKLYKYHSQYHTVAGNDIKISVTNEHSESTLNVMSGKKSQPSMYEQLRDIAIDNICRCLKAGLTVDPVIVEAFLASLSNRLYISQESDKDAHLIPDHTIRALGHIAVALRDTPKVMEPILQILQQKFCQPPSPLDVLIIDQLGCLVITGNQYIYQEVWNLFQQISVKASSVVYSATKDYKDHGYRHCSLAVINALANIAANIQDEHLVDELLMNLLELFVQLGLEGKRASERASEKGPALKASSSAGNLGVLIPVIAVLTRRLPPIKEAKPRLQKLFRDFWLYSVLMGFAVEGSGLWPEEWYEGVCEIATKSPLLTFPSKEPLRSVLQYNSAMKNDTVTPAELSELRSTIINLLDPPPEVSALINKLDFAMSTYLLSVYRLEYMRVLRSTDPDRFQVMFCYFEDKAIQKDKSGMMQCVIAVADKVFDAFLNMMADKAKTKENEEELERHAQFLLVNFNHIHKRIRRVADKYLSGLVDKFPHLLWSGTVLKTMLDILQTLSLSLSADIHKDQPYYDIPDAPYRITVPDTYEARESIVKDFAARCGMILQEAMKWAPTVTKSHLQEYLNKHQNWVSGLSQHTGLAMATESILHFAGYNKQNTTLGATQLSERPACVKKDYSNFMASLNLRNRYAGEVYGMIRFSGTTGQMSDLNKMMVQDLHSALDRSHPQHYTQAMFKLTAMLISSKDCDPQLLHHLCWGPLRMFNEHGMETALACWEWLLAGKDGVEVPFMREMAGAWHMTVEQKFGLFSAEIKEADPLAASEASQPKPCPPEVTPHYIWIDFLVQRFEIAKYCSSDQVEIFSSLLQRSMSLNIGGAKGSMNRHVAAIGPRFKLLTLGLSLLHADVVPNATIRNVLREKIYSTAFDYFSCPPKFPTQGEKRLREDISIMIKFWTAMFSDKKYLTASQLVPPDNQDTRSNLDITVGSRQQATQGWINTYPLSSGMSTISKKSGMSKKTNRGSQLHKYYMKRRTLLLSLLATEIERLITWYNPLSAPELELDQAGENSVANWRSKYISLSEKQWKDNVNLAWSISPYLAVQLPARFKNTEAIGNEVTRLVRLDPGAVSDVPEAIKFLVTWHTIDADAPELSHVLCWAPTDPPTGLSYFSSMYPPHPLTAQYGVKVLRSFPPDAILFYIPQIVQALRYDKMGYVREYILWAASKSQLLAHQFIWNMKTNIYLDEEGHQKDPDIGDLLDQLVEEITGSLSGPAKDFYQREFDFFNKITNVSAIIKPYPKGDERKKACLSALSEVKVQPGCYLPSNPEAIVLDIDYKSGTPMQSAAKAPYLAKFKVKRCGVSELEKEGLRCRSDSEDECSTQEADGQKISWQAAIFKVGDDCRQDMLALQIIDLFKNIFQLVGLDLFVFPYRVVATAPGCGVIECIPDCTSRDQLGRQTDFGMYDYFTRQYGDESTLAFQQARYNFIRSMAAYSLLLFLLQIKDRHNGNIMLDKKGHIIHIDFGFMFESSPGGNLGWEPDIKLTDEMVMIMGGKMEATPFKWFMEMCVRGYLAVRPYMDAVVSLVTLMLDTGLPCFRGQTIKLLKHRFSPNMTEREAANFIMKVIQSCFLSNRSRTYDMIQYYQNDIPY

SMILES | IC50 [1] [nM] | pIC50 [2] | pIC50 [3] | pIC50 [4] | pIC50 [5] | IC50 [6] [nM] | IC50 [7] [nM]
COc1ncc(-c2ccc3nc(N)n(-c4ccccc4)c(=O)c3c2)cc1NS(=O)(=O)c1cccc(C)c1 | 1.26 | 7.3 | 6.3 | 7.1 | 6.4 | 3.98 | 50.1
COc1ncc(-c2ccc3nc(N)c(-c4ccccc4)cc3c2)cc1NS(=O)(=O)c1ccc(F)cc1F | 10 | 6.9 | 5.9 | 6.5 | 5.8 | 100 | 63.1
COc1ncc(-c2ccc3nc(N)n(-c4ccccc4C)c(=O)c3c2)cc1S(=O)(=O)Nc1ccc(F)cc1F | 2.51 | 6.7 | 5.7 | 6.5 | 6.1 | 10 | 316
COc1ncc(-c2ccc3nc(N)n(-c4ccccc4)c(=O)c3c2)cc1NS(=O)(=O)c1cccnc1 | 1 | 8.5 | 7 | 8.4 | 7.4 | 0.316 | 6.31
COc1ncc(-c2ccc3nc(N)n(-c4ccccc4)c(=O)c3c2)cc1NS(=O)(=O)c1ccc(C#N)cc1 | 0.631 | 7.6 | 6.3 | 6.6 | 7.5 | 1 | 50.1
Nc1ncc(-c2ccc3nc(N)n(-c4ccccc4)c(=O)c3c2)cc1NS(=O)(=O)c1ccc(F)cc1F | 15.8 | 6.4 | 5.3 | 6.7 | 7.5 | 0.794 | 
COc1ncc(-c2ccc3nc(N)n(-c4ccc(C(F)(F)F)cc4)c(=O)c3c2)cc1S(=O)(=O)Nc1ccc(F)cc1F | 10 | 6.4 | 4.6 | 6.1 | 5 | 50.1 | 398
COc1ncc(-c2ccc3nc(N)c(-c4ccccc4)cc3n2)cc1NS(=O)(=O)c1ccc(F)cc1F | > 5010 | 4.9 | 4.2 | 4.2 | 5 | 7940 | 25100
COc1ncc(-c2cc3cc(-c4ccccc4)c(N)nc3cn2)cc1NS(=O)(=O)c1ccc(F)cc1F | 158 | 6.2 | 5.8 | 5.7 | 5 | 200 | 1260
COc1ncc(-c2ccc3nc(N)n(-c4ccccc4)c(=O)c3c2)cc1NS(C)(=O)=O | 20 | 6.6 | 5.3 | 6.4 | 6.1 | 20 | 794
COc1ncc(-c2ccc3nc(N)n(C4CCOCC4)c(=O)c3c2)cc1S(=O)(=O)Nc1ccc(F)cc1F | 3.98 | 6.6 | 5.4 | 6.6 | 5.9 | 10 | 501
COc1ncc(-c2ccc3ncnc(N4CCOCC4)c3c2)cc1NS(=O)(=O)c1ccc(F)cc1F |  | 8.9 | 8.7 | 8.9 | 7.7 | 1.58 | 2.51
COc1ncc(-c2ccc3nc(N)n(-c4ccccc4)c(=O)c3c2)cc1S(=O)(=O)Nc1ccc(F)cc1F | 5.01 | 6.3 | 4.9 | 6 | 5.5 | 6.31 | 1260
COc1ncc(-c2ccc3nc(N)n(-c4ccccc4)c(=O)c3c2)cc1NS(=O)(=O)c1ccccc1 | 0.501 | 7.7 | 6.3 | 7.3 | 6.7 | 2.51 | 
COc1ncc(-c2ccc3nc(N)n(-c4ccccc4)c(=O)c3c2)cc1NS(=O)(=O)c1ccc(C)cc1 | 3.16 | 8 | 5.6 | 7.3 | 6.2 | 15.8 | 
